Measurements reported in ChEMBL document CHEMBL1132496, “Combining in vitro and in vivo pharmacokinetic data for prediction of hepatic drug clearance in humans by artificial neural networks and multivariate statistical techniques” (J Med Chem, 1999).

Experiments:
[1] = organism: Homo sapiens; details: hepatocytes
Description: In vitro clearance in human in 1000000 cells

[2] = organism: Rattus norvegicus; details: hepatocytes
Description: In vitro clearance in rat in 1000000 cells

[3] = in vivo; details: dog
[4] = in vivo; details: rat
[5] = clinical; details: human, in vivo
Description: In vivo clearance in human

[6] = organism: Canis familiaris; details: dog, hepatocytes
Description: In vitro clearance in dog in 1000000 cells

[7] = in vivo; details: dog; remark: listed apart in the source
Description: In vivo clearance in dog.

[8] = in vivo; details: rat; remark: listed apart in the source
Description: In vivo clearance in rat.

[9] = clinical; details: human, in vivo; remark: listed apart in the source
Description: In vivo clearance in human.

Row | SMILES | clearance [1] | clearance [2] | clearance [3] | clearance [4] | clearance [5] | clearance [6] | clearance [7] | clearance [8] | clearance [9]
1 | CC(C)(C)S(=O)(=O)C[C@@H](Cc1ccccc1)C(=O)N[C@@H](Cc1cnc[nH]1)C(=O)N[C@@H](CC1CCCCC1)[C@@H](O)[C@@H](O)C1CC1 | 19.5 µL/min | 16.6 µL/min | 3 mL/min/kg | 119 mL/min/kg | 19.6 mL/min/kg |  |  |  | 
2 | Cc1cc(=O)n(-c2ccccc2)n1C [ANTIPYRINE] | 0.1 µL/min | 0.4 µL/min | 4.9 mL/min/kg | 7 mL/min/kg | 0.5 mL/min/kg | 1 µL/min |  |  | 
3 | COc1ccccc1Oc1c(NS(=O)(=O)c2ccc(C(C)(C)C)cc2)nc(-c2ncccn2)nc1OCCO [BOSENTAN] | 0.2 µL/min | 1.3 µL/min |  |  |  | 0.2 µL/min | 1.9 mL/min/kg | 55 mL/min/kg | 3.7 mL/min/kg
4 | Cn1c(=O)c2c(ncn2C)n(C)c1=O [CAFFEINE] | 0.1 µL/min | 0.6 µL/min | 2.6 mL/min/kg | 13 mL/min/kg | 2 mL/min/kg | 0.2 µL/min |  |  | 
5 | COc1ccc([C@@H]2Sc3ccccc3N(CCN(C)C)C(=O)[C@@H]2OC(C)=O)cc1 [DILTIAZEM] | 1.9 µL/min | 43.6 µL/min |  |  |  | 2.7 µL/min | 46.1 mL/min/kg | 87.2 mL/min/kg | 
6 | O=C1Nc2ccc(Cl)cc2C(c2ccccc2Cl)=NC1O (stereo not given) [LORAZEPAM] | 0.3 µL/min | 3.8 µL/min | 26.1 mL/min/kg | 27.2 mL/min/kg | 1.1 mL/min/kg | 18.1 µL/min |  |  | 
7 | COCC(=O)O[C@]1(CCN(C)CCCc2nc3ccccc3[nH]2)CCc2cc(F)ccc2[C@@H]1C(C)C [MIBEFRADIL] | 0.9 µL/min | 5.4 µL/min |  |  |  | 6.2 µL/min | 36 mL/min/kg | 94 mL/min/kg | 7 mL/min/kg
8 | Cc1ncc2n1-c1ccc(Cl)cc1C(c1ccccc1F)=NC2 [MIDAZOLAM] | 4.5 µL/min | 16.7 µL/min |  |  |  |  |  | 130 mL/min/kg | 11 mL/min/kg
9 | C/C(=C\c1ccc(OCCN2CCOCC2)cc1)c1ccc2c(c1)C(C)(C)CCC2(C)C [MOFAROTENE] | 2 µL/min | 2.3 µL/min |  |  |  | 1 µL/min | 5.8 mL/min/kg | 16 mL/min/kg | 11 mL/min/kg
10 | C=CCN1CC[C@]23c4c5ccc(O)c4O[C@H]2C(=O)CC[C@@]3(O)[C@H]1C5 [NALOXONE] | 16.7 µL/min | 54.6 µL/min | 42.5 mL/min/kg | 48.8 mL/min/kg | 25 mL/min/kg | 32.1 µL/min |  |  | 
11 | COC(=O)C1=C(C#N)NC(C)=C(C(=O)OC(C)C)C1c1cccc([N+](=O)[O-])c1 (stereo not given) [NILVADIPINE] | 13.3 µL/min | 29.7 µL/min | 15.3 mL/min/kg | 94 mL/min/kg | 20 mL/min/kg | 10.9 µL/min |  |  | 
12 | CCOC(=O)C1=C(C)NC(C)=C(C(=O)OC)C1c1cccc([N+](=O)[O-])c1 (stereo not given) [NITRENDIPINE] | 12 µL/min | 24 µL/min | 21.7 mL/min/kg | 16.5 mL/min/kg | 18.7 mL/min/kg | 8.1 µL/min |  |  | 
13 | Cn1c(=O)c2[nH]cnc2n(C)c1=O.O [THEOPHYLLINE] | 0.1 µL/min | 0.2 µL/min | 1.5 mL/min/kg | 2.2 mL/min/kg | 0.6 mL/min/kg | 0.2 µL/min |  |  | 
14 | Cc1ccc(C(=O)c2cc(O)c(O)c([N+](=O)[O-])c2)cc1 [TOLCAPONE] | 1.2 µL/min | 2.6 µL/min | 3.3 mL/min/kg | 15 mL/min/kg | 2.7 mL/min/kg | 1.4 µL/min |  |  | 
